Data published in patent US9302999B2, “Substituted triazoles as herbicides” (E. I. DU PONT DE NEMOURS AND COMPANY, priority 2012, dated 2016).

Key:
Format in all cases: in vivo
[1] = tested on: bromegrass, downy (downy bromegrass, Bromus tectorum); assay: Test C pre-/postemergence: bromegrass, downy
Procedure, shortened: (§1)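 Preemergence on seeds in loam/sand, postemergence on 2–18 cm (1–4-leaf) plants in peat-based medium; compounds in non-phytotoxic solvent with surfactant. After 13–15 days in greenhouse, visual rating versus controls, 0 (no effect) to 100 (complete control).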

[2] = tested on: foxtail, green (green foxtail, Setaria viridis); assay: Test C pre-/postemergence: foxtail, green
Procedure, shortened: as §1

[3] = tested on: cocklebur (common cocklebur, Xanthium strumarium); assay: Test C pre-/postemergence: cocklebur
Procedure, shortened: as §1

[4] = tested on: woolly cupgrass (Eriochloa villosa); assay: Test C pre-/postemergence: woolly cupgrass
Description: (§2) Seeds of plant species selected from blackgrass (Alopecurus myosuroides), bromegrass, downy (downy bromegrass, Bromus tectorum), foxtail, green (green foxtail, Setaria viridis), ryegrass, Italian (Italian ryegrass, Lolium multiflorum), winter wheat (Triticum aestivum), wild oat (Avena fatua), galium (catchweed bedstraw, Galium aparine), bermudagrass (Cynodon dactylon), surinam grass (Brachiaria decumbens), cocklebur (common cocklebur, Xanthium strumarium), corn (Zea mays), large crabgrass (Digitaria sanguinalis), woolly cupgrass (Eriochloa villosa), foxtail, giant (giant foxtail, Setaria faberii), goosegrass (Eleusine indica), johnsongrass (Sorghum halepense), kochia (Kochia scoparia), lambsquarters (Chenopodium album), morningglory (Ipomoea coccinea), nightshade (eastern black nightshade, Solanum ptycanthum), nutsedge, yellow (yellow nutsedge, Cyperus esculentus), pigweed (Amaranthus retroflexus), ragweed (common ragweed, Ambrosia elation), soybean (Glycine max), common (oilseed) sunflower (Helianthus annuus), Russian thistle (Salsola kali) and velvetleaf (Abutilon theophrasti) were planted into a blend of loam soil and sand and treated preemergence with test chemicals formulated in a non-phytotoxic solvent mixture which included a surfactant.
(§3) At the same time, plants selected from these crop and weed species and also barley (winter barley, Hordeum vulgare), canarygrass (Phalaris minor), chickweed (common chickweed, Stellaria media) windgrass (Apera spica-venti) and deadnettle (henbit deadnettle, Lamium amplexicaule) were planted in pots containing Redi-Earth® planting medium (Scotts Company, 14111 Scottslawn Road, Marysville, Ohio 43041) comprising spaghnum peat moss, vermiculite, wetting agent and starter nutrients and treated with postemergence applications of test chemicals formulated in the same manner. Plants ranged in height from 2 to 18 cm (1- to 4-leaf stage) for postemergence treatments.
(§4) Treated plants and controls were maintained in a greenhouse for 13 to 15 days, after which time all species were compared to controls and visually evaluated. Plant response ratings, summarized in Table C, are based on a scale of 0 to 100 where 0 is no effect and 100 is complete control. A dash (-) response means no test result.

[5] = tested on: goosegrass (Eleusine indica); assay: Test C pre-/postemergence: goosegrass
Description: as §2, §3, §4

[6] = tested on: nightshade (eastern black nightshade, Solanum ptycanthum); assay: Test C pre-/postemergence: nightshade; settings: Preemergence
Procedure, shortened: as §1

[7] = tested on: barley (winter barley, Hordeum vulgare); assay: Test C postemergence: barley
Description: as §3, §4

[8] = tested on: canarygrass (Phalaris minor); assay: Test C postemergence: canarygrass
Description: as §3, §4

[9] = tested on: windgrass (Apera spica-venti); assay: Test C postemergence: windgrass
Description: as §3, §4

[10] = tested on: deadnettle (henbit deadnettle, Lamium amplexicaule); assay: Test C postemergence: deadnettle
Description: as §3, §4

[11] = Postemergence, 16 g ai/ha, scale 0 to 100, 0 no effect, 100 complete control
[12] = Postemergence, 31 g ai/ha, scale 0 to 100 (0 no effect, 100 complete control)
[13] = Postemergence, 62 g ai/ha, scale 0 to 100 (0 no effect, 100 complete control)
[14] = Postemergence, 125 g ai/ha, scale 0 to 100, 0 no effect, 100 complete control
[15] = Preemergence, 16 g ai/ha, scale 0 (no effect) to 100 (complete control)
[16] = Preemergence, 31 g ai/ha, scale of 0 to 100, 0 is no effect, 100 is complete control
[17] = Preemergence, 62 g ai/ha, scale 0 to 100, 0 no effect, 100 complete control
[18] = Preemergence, 125 g ai/ha, scale 0 to 100, 0 no effect, 100 complete control
[19] = Preemergence, 62 g ai/ha, scale of 0 to 100, 0 is no effect, 100 is complete control
[20] = 31 g ai/ha, scale of 0 to 100, 0 is no effect, 100 is complete control
[21] = 62 g ai/ha, scale of 0 to 100, 0 is no effect, 100 is complete control
[22] = 125 g ai/ha, scale 0 to 100, 0 no effect, 100 complete control
[23] = 16 g ai/ha, scale 0 to 100, 0 no effect, 100 complete control
[24] = 31 g ai/ha, scale 0 to 100 (0 no effect, 100 complete control)
[25] = 62 g ai/ha, scale 0 to 100 (0 no effect, 100 complete control)
[26] = Postemergence, 250 g ai/ha, scale 0 to 100
[27] = Preemergence, 250 g ai/ha, scale 0 to 100, 0 no effect, 100 complete control

COc1nn(-c2ccc(C(F)(F)F)cc2)nc1Cc1ccnc(C(F)(F)F)c1 [Compound 15, 4-[[5-methoxy-2-[4-(trifluoromethyl)phenyl]-2H-1,2,3-triazol-4-yl]methyl]-2-(trifluoromethyl)pyridine]
Plant response rating, Bromegrass, Downy [1, 11]: 10 | Plant response rating, Bromegrass, Downy [1, 12]: 25 | Plant response rating, Bromegrass, Downy [1, 13]: 35 | Plant response rating, Bromegrass, Downy [1, 14]: 40 | Plant response rating, Bromegrass, Downy [1, 15]: 15 | Plant response rating, Bromegrass, Downy [1, 16]: 25 | Plant response rating, Bromegrass, Downy [1, 17]: 30 | Plant response rating, Bromegrass, Downy [1, 18]: 80 | Plant response rating, Foxtail, Green [2, 11]: 30 | Plant response rating, Foxtail, Green [2, 12]: 40 | Plant response rating, Foxtail, Green [2, 13]: 85 | Plant response rating, Foxtail, Green [2, 14]: 85 | Plant response rating, Foxtail, Green [2, 15]: 95 | Plant response rating, Foxtail, Green [2, 16]: 95 | Plant response rating, Foxtail, Green [2, 19]: 100 | Plant response rating, Foxtail, Green [2, 18]: 100 | Plant response rating, Cocklebur [3, 12]: 5 | Plant response rating, Cocklebur [3, 13]: 60 | Plant response rating, Cocklebur [3, 14]: 75 | Plant response rating, Cocklebur [3, 15]: 0 | Plant response rating, Cocklebur [3, 16]: 0 | Plant response rating, Cocklebur [3, 18]: 65 | Plant response rating, Cupgrass, Woolly [4, 11]: 5 | Plant response rating, Cupgrass, Woolly [4, 12]: 5 | Plant response rating, Cupgrass, Woolly [4, 13]: 5 | Plant response rating, Cupgrass, Woolly [4, 14]: 75 | Plant response rating, Cupgrass, Woolly [4, 15]: 5 | Plant response rating, Cupgrass, Woolly [4, 16]: 45 | Plant response rating, Cupgrass, Woolly [4, 19]: 85 | Plant response rating, Cupgrass, Woolly [4, 18]: 95 | Plant response rating, Goosegrass [5, 11]: 5 | Plant response rating, Goosegrass [5, 12]: 25 | Plant response rating, Goosegrass [5, 13]: 40 | Plant response rating, Goosegrass [5, 14]: 65 | Plant response rating, Goosegrass [5, 15]: 100 | Plant response rating, Goosegrass [5, 16]: 100 | Plant response rating, Goosegrass [5, 19]: 100 | Plant response rating, Goosegrass [5, 18]: 100 | Plant response rating, Nightshade ([6]; 16 g ai/ha, scale 0 (no effect) to 100 (complete control)): 10 | Plant response rating, Nightshade [6, 20]: 25 | Plant response rating, Nightshade [6, 21]: 85 | Plant response rating, Nightshade [6, 22]: 90 | Plant response rating, Barley [7, 23]: 30 | Plant response rating, Barley [7, 24]: 35 | Plant response rating, Barley [7, 25]: 35 | Plant response rating, Barley [7, 22]: 50 | Plant response rating, Canarygrass [8, 23]: 35 | Plant response rating, Canarygrass [8, 24]: 60 | Plant response rating, Canarygrass [8, 25]: 85 | Plant response rating, Canarygrass [8, 22]: 85 | Plant response rating, Windgrass [9, 23]: 20 | Plant response rating, Windgrass [9, 24]: 20 | Plant response rating, Windgrass [9, 25]: 85 | Plant response rating, Windgrass [9, 22]: 90 | Plant response rating, Deadnettle [10, 23]: 90 | Plant response rating, Deadnettle [10, 24]: 100 | Plant response rating, Deadnettle [10, 25]: 100 | Plant response rating, Deadnettle [10, 22]: 100

Cc1nn(-c2ccc(C(F)(F)F)cn2)nc1Oc1ccnc(C(F)(F)F)c1 [Compound 23]
Plant response rating, Bromegrass, Downy [1, 12]: 5 | Plant response rating, Bromegrass, Downy [1, 13]: 5 | Plant response rating, Bromegrass, Downy [1, 14]: 5 | Plant response rating, Bromegrass, Downy [1, 26]: 5 | Plant response rating, Bromegrass, Downy [1, 16]: 0 | Plant response rating, Bromegrass, Downy [1, 17]: 0 | Plant response rating, Bromegrass, Downy [1, 18]: 5 | Plant response rating, Bromegrass, Downy [1, 27]: 10 | Plant response rating, Foxtail, Green [2, 13]: 30 | Plant response rating, Foxtail, Green [2, 14]: 45 | Plant response rating, Foxtail, Green [2, 26]: 50 | Plant response rating, Foxtail, Green [2, 16]: 100 | Plant response rating, Foxtail, Green [2, 19]: 100 | Plant response rating, Foxtail, Green [2, 18]: 100 | Plant response rating, Foxtail, Green [2, 27]: 100 | Plant response rating, Cocklebur [3, 12]: 25 | Plant response rating, Cocklebur [3, 13]: 25 | Plant response rating, Cocklebur [3, 14]: 40 | Plant response rating, Cocklebur [3, 26]: 50 | Plant response rating, Cocklebur [3, 16]: 0 | Plant response rating, Cocklebur [3, 17]: 0 | Plant response rating, Cocklebur [3, 18]: 5 | Plant response rating, Cocklebur [3, 27]: 5 | Plant response rating, Cupgrass, Woolly [4, 12]: 10 | Plant response rating, Cupgrass, Woolly [4, 13]: 10 | Plant response rating, Cupgrass, Woolly [4, 14]: 15 | Plant response rating, Cupgrass, Woolly [4, 26]: 50 | Plant response rating, Cupgrass, Woolly [4, 16]: 95 | Plant response rating, Cupgrass, Woolly [4, 19]: 100 | Plant response rating, Cupgrass, Woolly [4, 18]: 100 | Plant response rating, Cupgrass, Woolly [4, 27]: 100 | Plant response rating, Goosegrass [5, 12]: 10 | Plant response rating, Goosegrass [5, 13]: 10 | Plant response rating, Goosegrass [5, 14]: 15 | Plant response rating, Goosegrass [5, 26]: 30 | Plant response rating, Goosegrass [5, 16]: 95 | Plant response rating, Goosegrass [5, 19]: 100 | Plant response rating, Goosegrass [5, 18]: 100 | Plant response rating, Goosegrass [5, 27]: 100 | Plant response rating, Nightshade [6, 20]: 50 | Plant response rating, Nightshade [6, 21]: 90 | Plant response rating, Nightshade [6, 22]: 95 | Plant response rating, Nightshade ([6]; 250 g ai/ha, scale 0 to 100, 0 no effect, 100 complete control): 98 | Plant response rating, Barley [7, 24]: 5 | Plant response rating, Barley [7, 25]: 15 | Plant response rating, Barley [7, 22]: 20 | Plant response rating, Barley ([7]; 250 g ai/ha, scale 0 to 100): 30 | Plant response rating, Canarygrass [8, 24]: 5 | Plant response rating, Canarygrass [8, 25]: 10 | Plant response rating, Canarygrass [8, 22]: 15 | Plant response rating, Canarygrass ([8]; 250 g ai/ha, scale 0 to 100): 15 | Plant response rating, Windgrass [9, 24]: 10 | Plant response rating, Windgrass [9, 25]: 15 | Plant response rating, Windgrass [9, 22]: 15 | Plant response rating, Windgrass ([9]; 250 g ai/ha, scale 0 to 100): 15 | Plant response rating, Deadnettle [10, 24]: 80 | Plant response rating, Deadnettle [10, 25]: 80 | Plant response rating, Deadnettle [10, 22]: 85 | Plant response rating, Deadnettle ([10]; 250 g ai/ha, scale 0 to 100): 98
